Measurements from PMC12278645, “Design, synthesis, and antitumor activity of novel thioheterocyclic nucleoside derivatives by suppressing the c-MYC pathway” (Acta Pharmaceutica Sinica. B, 2025).

How the values were obtained:
[1] = system: HCT116 cells; experiment: CCK-8 anti-proliferation assay, HCT116; format: cell-based, human
Protocol: (§1) Tumor cell anti-proliferation activities were determined by cell counting kit-8 (CCK-8) assay.
(§2) MCF-7, A375, and HeLa cells were cultured in DMEM, HCT116 cells were cultured in McCoy's 5A medium, and DU145 and CT26 were cultured in RPMI 1640 with 10% FBS, 1% penicillin-streptomycin solution (10,000 U/mL penicillin and 10,000 μg/mL streptomycin) at 37 °C under 5% CO2. The cells were seeded in 96-well plates (4 × 10^3 cells/well) overnight and then treated with various concentrations (1–50 μmol/L) of the compound. After 48 h, the cell viability was measured by CCK-8 assay. The absorbance of each well was measured using a microplate reader (Multiskan FC, Thermo Fisher Scientific, Massachusetts, USA) at 450 nm wavelength. Assays were performed in triplicate. Compound concentrations that inhibited cell growth by 50% (IC50) were calculated from the dose–response curves of each cell line. Data are mean ± SD values from three independent experiments.

[2] = system: HeLa cells; experiment: CCK-8 anti-proliferation assay, HeLa; format: cell-based, human
Protocol: as §1, §2

[3] = Homo sapiens, HCT-116, 48 h, CCK-8, 48 h, mean ± SD, three independent experiments
[4] = Homo sapiens, HeLa, 48 h, CCK-8, 48 h, mean ± SD, three independent experiments
[5] = CCK-8, 48 h, mean ± SD, three independent experiments

Compound | IC50 [1, 3] | IC50 [2, 4] | IC50 [1, 5] | IC50 [2, 5] | also measured
CCOC(=O)[C@]1(n2cnc3c(SC)ncnc32)CSC[C@H]1O (relative stereo) [21a] | 44.1 ± 1.36 µM | 31 ± 2.18 µM | – | – | –
CCOC(=O)[C@]1(n2cnc3c(SC)ncnc32)CSC[C@@H]1O (relative stereo) [21b] | 32.7 ± 1.17 µM | 8.83 ± 0.78 µM | – | – | –
CCOC(=O)[C@]1(n2cnc3c(SCC)ncnc32)CSC[C@H]1O (relative stereo) [22a] | 7.56 ± 1.09 µM | 5.46 ± 1.02 µM | – | – | –
CCOC(=O)[C@]1(n2cnc3c(SCC)ncnc32)CSC[C@@H]1O (relative stereo) [22b] | 2.42 ± 0.82 µM | 3.27 ± 0.82 µM | – | – | –
CCOC(=O)[C@]1(n2cnc3c(SC(C)C)ncnc32)CSC[C@H]1O (relative stereo) [23a] | 4.85 ± 1.02 µM | 8.45 ± 1.23 µM | – | – | –
CCOC(=O)[C@]1(n2cnc3c(SC(C)C)ncnc32)CSC[C@@H]1O (relative stereo) [23b] | 4.01 ± 0.88 µM | 3.43 ± 0.76 µM | – | – | –
C#CCSc1ncnc2c1ncn2[C@@]1(C(=O)OCC)CSC[C@H]1O (relative stereo) [24a] | 1.81 ± 0.12 µM | 15.9 ± 2.12 µM | – | – | –
C#CCSc1ncnc2c1ncn2[C@@]1(C(=O)OCC)CSC[C@@H]1O (relative stereo) [24b] | 1.66 ± 0.13 µM | 14.9 ± 2.01 µM | – | – | –
CCCCSc1ncnc2c1ncn2[C@@]1(C(=O)OCC)CSC[C@H]1O (relative stereo) [25a] | 9.07 ± 0.49 µM | 9.89 ± 1.02 µM | – | – | –
CCCCSc1ncnc2c1ncn2[C@@]1(C(=O)OCC)CSC[C@@H]1O (relative stereo) [25b] | 2.84 ± 0.27 µM | 6.32 ± 0.82 µM | – | – | –
CCCCCSc1ncnc2c1ncn2[C@@]1(C(=O)OCC)CSC[C@H]1O (relative stereo) [26a] | 11.9 ± 1.32 µM | 6.07 ± 0.78 µM | – | – | –
CCCCCSc1ncnc2c1ncn2[C@@]1(C(=O)OCC)CSC[C@@H]1O (relative stereo) [26b] | 11.8 ± 1.27 µM | > 50 µM | – | – | –
CCOC(=O)[C@]1(n2cnc3c(SCc4ccccc4)ncnc32)CSC[C@H]1O (relative stereo) [27a] | 14.4 ± 1.64 µM | 22.3 ± 2.09 µM | – | – | –
CCOC(=O)[C@]1(n2cnc3c(SCc4ccccc4)ncnc32)CSC[C@@H]1O (relative stereo) [27b] | 5.65 ± 1.4 µM | 23.9 ± 2.38 µM | – | – | –
CCOC(=O)[C@]1(n2cnc3c(Sc4cccc(F)c4)ncnc32)CSC[C@H]1O (relative stereo) [28a] | 12.8 ± 1.08 µM | 9.47 ± 1.02 µM | – | – | –
CCOC(=O)[C@]1(n2cnc3c(Sc4cccc(F)c4)ncnc32)CSC[C@@H]1O (relative stereo) [28b] | 15.7 ± 2 µM | 25.8 ± 1.35 µM | – | – | –
CCOC(=O)[C@]1(n2cnc3c(Sc4ccc(C(C)(C)C)cc4)ncnc32)CSC[C@H]1O (relative stereo) [29a] | 7.6 ± 1.22 µM | 21.2 ± 2.37 µM | – | – | –
CCOC(=O)[C@]1(n2cnc3c(Sc4ccc(C(C)(C)C)cc4)ncnc32)CSC[C@@H]1O (relative stereo) [29b] | 6.78 ± 1.22 µM | 15.1 ± 2.08 µM | – | – | –
CCOC(=O)[C@]1(n2cnc3c(SCCCF)ncnc32)CSC[C@H]1O (relative stereo) [30a] | 19.1 ± 1.37 µM | 10.8 ± 1.07 µM | – | – | –
CCOC(=O)[C@]1(n2cnc3c(SCCCF)ncnc32)CSC[C@@H]1O (relative stereo) [30b] | 10.9 ± 1.01 µM | 12.1 ± 1.12 µM | – | – | –

Compound | IC50 [1, 3] | IC50 [2, 4] | IC50 [1, 5] | IC50 [2, 5] | also measured
CCOC(=O)[C@]1(n2cnc3c(SCCCCl)ncnc32)CSC[C@H]1O (relative stereo) [31a] | > 50 µM | > 50 µM | – | – | –
CCOC(=O)[C@]1(n2cnc3c(SCCCCl)ncnc32)CSC[C@@H]1O (relative stereo) [31b] | > 50 µM | > 50 µM | – | – | –
CCOC(=O)C1(n2cnc3c(Cl)ncnc32)CSCC1O (single isomer, unassigned) [2a] | – | – | 48.9 ± 2.12 µM | > 50 µM | –
CCOC(=O)C1(n2cnc3c(Cl)ncnc32)CSCC1O (single isomer, unassigned) [2b] | – | – | > 50 µM | > 50 µM | –
CCOC(=O)C1(n2cnc3c(Br)ncnc32)CSCC1O (single isomer, unassigned) [3a] | – | – | 8.97 ± 1.03 µM | > 50 µM | –
CCOC(=O)C1(n2cnc3c(Br)ncnc32)CSCC1O (single isomer, unassigned) [3b] | – | – | > 50 µM | > 50 µM | –
CCOC(=O)C1(n2cnc3c(N(C)C)ncnc32)CSCC1O (single isomer, unassigned) [4a] | – | – | 17.4 ± 1.01 µM | 9.81 ± 1.12 µM | –
CCOC(=O)C1(n2cnc3c(N(C)C)ncnc32)CSCC1O (single isomer, unassigned) [4b] | – | – | 49.5 ± 2.02 µM | 12 ± 1.57 µM | –
CCOC(=O)C1(n2cnc3c(N4CCOCC4)ncnc32)CSCC1O (single isomer, unassigned) [9a] | – | – | > 50 µM | 10.8 ± 1.03 µM | –
CCOC(=O)C1(n2cnc3c(N4CCOCC4)ncnc32)CSCC1O (single isomer, unassigned) [9b] | – | – | 17.1 ± 1.12 µM | 10.2 ± 1.05 µM | –
CCOC(=O)C1(n2cnc3c(N4CCSCC4)ncnc32)CSCC1O (single isomer, unassigned) [10a] | – | – | 18.8 ± 1.04 µM | 45.8 ± 2.12 µM | –
CCOC(=O)C1(n2cnc3c(N4CCSCC4)ncnc32)CSCC1O (single isomer, unassigned) [10b] | – | – | 10.1 ± 1.01 µM | 10.2 ± 1.93 µM | –
CCOC(=O)C1(n2cnc3c(N4CCC(C)CC4)ncnc32)CSCC1O (single isomer, unassigned) [11a] | – | – | 1.44 ± 0.13 µM | 21.8 ± 2.42 µM | –
CCOC(=O)C1(n2cnc3c(N4CCC(C)CC4)ncnc32)CSCC1O (single isomer, unassigned) [11b] | – | – | 0.91 ± 0.27 µM | 23.4 ± 2.76 µM | –
CCOC(=O)C1(n2cnc3c(N4CCC(F)CC4)ncnc32)CSCC1O (single isomer, unassigned) [12a] | – | – | 1.64 ± 0.27 µM | 44.5 ± 3.12 µM | –
CCOC(=O)C1(n2cnc3c(N4CCC(F)CC4)ncnc32)CSCC1O (single isomer, unassigned) [12b] | – | – | 3.92 ± 0.87 µM | 40.9 ± 3.08 µM | –
CCOC(=O)C1(n2cnc3c(N4CCC(C(F)(F)F)CC4)ncnc32)CSCC1O (single isomer, unassigned) [13a] | – | – | 5.89 ± 1.02 µM | 42 ± 2.12 µM | –
CCOC(=O)C1(n2cnc3c(N4CCC(C(F)(F)F)CC4)ncnc32)CSCC1O (single isomer, unassigned) [13b] | – | – | 2.37 ± 0.36 µM | 38.7 ± 2.09 µM | –
CCOC(=O)C1(n2cnc3c(N4CCC(Cl)CC4)ncnc32)CSCC1O (single isomer, unassigned) [14a] | – | – | 15 ± 2.16 µM | 12.1 ± 1.32 µM | –
CCOC(=O)C1(n2cnc3c(N4CCC(Cl)CC4)ncnc32)CSCC1O (single isomer, unassigned) [14b] | – | – | 18 ± 2.37 µM | 14.3 ± 1.58 µM | –

Compound | IC50 [1, 3] | IC50 [2, 4] | IC50 [1, 5] | IC50 [2, 5] | also measured
CCOC(=O)C1(n2cnc3c(N4CCC(N5CCOCC5)CC4)ncnc32)CSCC1O (single isomer, unassigned) [15a] | – | – | 43.9 ± 2.11 µM | 13.7 ± 1.33 µM | –
CCOC(=O)C1(n2cnc3c(N4CCC(N5CCOCC5)CC4)ncnc32)CSCC1O (single isomer, unassigned) [15b] | – | – | 32 ± 2.09 µM | 7.71 ± 1.02 µM | –
CCOC(=O)C1(n2cnc3c(N4CCC(Cc5ccccc5F)CC4)ncnc32)CSCC1O (single isomer, unassigned) [17a] | – | – | 4.4 ± 1.02 µM | 17 ± 1.03 µM | –
CCOC(=O)C1(n2cnc3c(N4CCC(Cc5ccccc5F)CC4)ncnc32)CSCC1O (single isomer, unassigned) [17b] | – | – | 4.49 ± 1.13 µM | 17 ± 1.12 µM | –
CCOC(=O)C1(n2cnc3c(N4CCCCCC4)ncnc32)CSCC1O (single isomer, unassigned) [19a] | – | – | 1.19 ± 0.09 µM | 22.8 ± 1.22 µM | –
CCOC(=O)C1(n2cnc3c(N4CCCCCC4)ncnc32)CSCC1O (single isomer, unassigned) [19b] | – | – | 3.05 ± 0.67 µM | 46.1 ± 2.46 µM | –
CCOC(=O)C1(n2cnc3c(N4CCCC4)ncnc32)CSCC1O (single isomer, unassigned) [20a] | – | – | 39.1 ± 1.35 µM | 11.4 ± 1.42 µM | –
CCOC(=O)C1(n2cnc3c(N4CCCC4)ncnc32)CSCC1O (single isomer, unassigned) [20b] | – | – | 22.8 ± 1.04 µM | 12.2 ± 1.28 µM | –
CCOC(=O)C1(n2cnc3c(N4CCCCC4)nc(N)nc32)CSCC1O (single isomer, unassigned) [32a] | – | – | 0.72 ± 0.08 µM | 5.35 ± 1.05 µM | –
CCOC(=O)C1(n2cnc3c(N4CCCCC4)nc(N)nc32)CSCC1O (single isomer, unassigned) [32b] | – | – | 0.81 ± 0.12 µM | 5.37 ± 1.09 µM | –
CCOC(=O)C1(n2cnc3c(N4CCCCC4)nc(Cl)nc32)CSCC1O (single isomer, unassigned) [34a] | – | – | 7.2 ± 0.39 µM | 4.86 ± 0.65 µM | –
CCOC(=O)C1(n2cnc3c(N4CCCCC4)nc(Cl)nc32)CSCC1O (single isomer, unassigned) [34b] | – | – | 4.3 ± 0.51 µM | 4.05 ± 0.37 µM | –
CCCSc1nc(N)nc2c1ncn2C1(C(=O)OCC)CSCC1O (single isomer, unassigned) [35a] | – | – | 0.73 ± 0.11 µM | 9.44 ± 1.27 µM | –
CCCSc1nc(N)nc2c1ncn2C1(C(=O)OCC)CSCC1O (single isomer, unassigned) [35b] | – | – | 0.65 ± 0.21 µM | 8.49 ± 1.02 µM | –
CCCSc1nc(Cl)nc2c1ncn2C1(C(=O)OCC)CSCC1O (single isomer, unassigned) [37a] | – | – | 3.81 ± 0.13 µM | 1.58 ± 0.36 µM | –
CCCSc1nc(Cl)nc2c1ncn2C1(C(=O)OCC)CSCC1O (single isomer, unassigned) [37b] | – | – | 2.7 ± 0.04 µM | 5.98 ± 1.25 µM | –
CCOC(=O)C1(n2cnc3c(Cl)nc(N)nc32)CSCC1O (single isomer, unassigned) [38a] | – | – | – | – | IC50 ([1]; Table S3, CCK-8, mean ± SD): 30.5 ± 1.42 µM; IC50 ([2]; Table S3, CCK-8, mean ± SD): 25.6 ± 2.13 µM
CCOC(=O)C1(n2cnc3c(Cl)nc(N)nc32)CSCC1O (single isomer, unassigned) [38b] | – | – | – | – | IC50 ([1]; Table S3, CCK-8, mean ± SD): 10.6 ± 1.02 µM; IC50 ([2]; Table S3, CCK-8, mean ± SD): 22.5 ± 2.17 µM
